In patent publication US20100279990A1, “ANTIPROLIFERATIVE COMPOUNDS, COMPOSITIONS AND METHODS OF USE” (RAMOT AT TEL-AVIV UNIVERSITY LTD., priority 2006, published 2010):

What was measured:
[1] = system: PHA activated healthy human T cells; test: PHA induced proliferation of healthy human lymphocytes, alamar blue; type: cell-based
[2] = system: BCL2 expression in human Jurkat lymphoma cells; test: Western blot of BCL2 expression in human Jurkat lymphoma cell-line; type: cell-based; details: FIG. 10
Source text: This example illustrates western blot data corresponding to BCL2 expression in a human Jurkat lymphoma cell-line treated with different concentrations of compound (Ia). The results are depicted in FIG. 10.

[3] = system: human colon carcinoma cells (HT29); test: HT29 human colon carcinoma s.c. tumor in Nude CD1 male mice; type: in vivo
Source text: This example illustrates the effect of several compounds, including an exemplary compound of the present invention, on tumor volume. tumor weight and body weight in mice. Nude CD1 male mice were purchased from Harlan (Israel). Animals were housed under controlled conditions (temperature, humidity) and were given food and water ad libitum. After one week of acclimatization animals were inoculated s.c. with human colon carcinoma cells (HT29) (2,000,000 cell/animals.). Therapy began 8 days after inoculation, at which time the animals were divided randomly into 4 groups (7-8 mice/group) and administered ip 3 times weekly for 4 weeks with the following compounds: […] Body weight and tumor volume were measured weekly. Tumor volume is defined as (shortest diameter)^2×(longest diameter)×0.5. At the end of the treatment, animals were sacrificed and tumors and organs collected and weighed.

RXF 486L = test: Monolayer Assay, PI: RXF 486L (Renal); type: cell-based, human
Source text: This example illustrates cell proliferation data in the form of IC50, IC70 and IC90 values obtained by exposure of human cancer cell-lines to compound (Ia). […].

With `CN[C@H]1CC[C@@H](c2ccc(Cl)c(Cl)c2)c2ccc(C#CCCCO)cc21` [compound (Ia), (1S-cis)-4-(3,4-dichlorophenyl)-7-(5-hydroxy-1-pentyn-1-yl)-1,2,3,4-tetrahydro-N-methyl-1-naphthalenamine hydroiodide] the “potency relative to sertraline” value [1] was “about 3 times”, the IC50 ([1]; T-cell, 48 hr, alamar blue) was 9.8 µM and the BCL2 expression [2] was “rapid dose dependent decrease in the levels of the protooncogene Bcl2”. The tumor weight ([3]; HT29 tumor in nude mice, end of treatment, FIG. 17) was “very similar to the tumor weight of mice treated with 5 FU”, the tumor volume ([3]; HT29 tumor in nude mice, ip 3 times weekly, after 3 and 4 weeks of therapy, FIG. 16) was “significantly decreased compared to the control groups” and the “decrease in body weight” value ([3]; compared to 5 FU or controls, FIG. 18) was 10%. The “histopathological assessment of spleen, liver and kidney” value ([3]; end of treatment) was “change in capsule fibrosis at random”, the “efficacy in inhibiting human colon cancer tumor growth” value ([3]; mice model, 30 mg/kg ip) was “high efficacy superior to sertraline” and the “Test/Control (%)” value (RXF 486L; 2.3 μg/ml) was 103%. For the same molecule, the Test/Control activity class (RXF 486L; 2.3 μg/ml) was “− (− (T/C = 50))”, the “Test/Control (%)” value (RXF 486L; 7.5 μg/ml) was 81% and the Test/Control activity class (RXF 486L; 7.5 μg/ml) was “− (− (T/C = 50))”. The “Test/Control (%)” value (RXF 486L; 23. μg/ml) was 9%, the Test/Control activity class (RXF 486L; 23. μg/ml) was “+++ (+++ (T/C < 10))” and the “Test/Control (%)” value (RXF 486L; 75. μg/ml) was 5%. For the same molecule, the Test/Control activity class (RXF 486L; 75. μg/ml) was “+++ (+++ (T/C < 10))”, the “Test/Control (%)” value (RXF 486L; .75 μg/ml) was 102% and the Test/Control activity class (RXF 486L; .75 μg/ml) was “− (− (T/C = 50))”.
